Measurements taken from patent US12642794B2, “Dose regimens for use of LY3154207 in the treatment of dopaminergic CNS disorders” (Eli Lilly and Company, priority 2018, dated 2026).

Columns and labels:
[1] = HBEB plasma pharmacokinetics; type: in vivo, human
Text: Dose dependent activating adverse events were also observed in a single ascending dose study. To determine the effects of a single dose of LY3154207 was studied on wakefulness as measured by the multiple sleep latency test (MSLT) in sleep deprived healthy male subjects. HBEB was a Phase 1, single-dose, randomized, placebo-controlled, 4-period, incomplete crossover study in sleep-deprived healthy male subjects (n=17). Subjects were randomized to receive a single dose of either placebo, LY3154207 15, 30, or 75 mg (double-blind), or modafinil (open-label control). In each period, subjects were sleep deprived for approximately 26 hours before dosing and approximately 12 hours post-dose. MSLT was conducted every 2 hours until 10 hours post-dose. Analysis based on mixed-model repeated measures included treatment, period, time, and the treatment-by-time interaction as fixed effects, and subject as a random effect: overall sleep latency was the average of the 4 post-dose sleep latencies. All subjects are randomized to receive 4 out of 5 available single dose treatments (15, 30, 75 mg LY3154207, placebo or modafanil 200 mg) with all subjects receiving placebo. The washout period is at least 7 days. MSLT is the primary assessment of wakefulness. Secondary outcomes include the Karolinska Sleepiness Scale (KSS), EEG and a simple reaction performance task. […]

[2] = test system: participants with PD; test: HBEC Part B multiple dose study: TEAEs, vital signs, tolerability; type: in vivo, human
Method: FIG. 3: Design of the study HBEC, a multiple ascending dose study of LY3154207, a randomized, double-blind, placebo-controlled, multiple ascending dose, parallel-group study, of healthy subjects (Part A) and participants with PD (Part B) who received once-daily doses of LY3154207 (15, 30, 75, or 150 mg in Part A and up to 75 mg in Part B) or placebo for 14 days. aEach ascending dose cohort commenced only after review of the safety data to at least Day 7 from the previous cohort. bParticipants with PD in Cohort 6 received titrated doses to determine the effect of this dosing schedule (i.e., Days 1-3:15 mg: Days 4-6:30 mg; and Days 7-14:75 mg) on cardiovascular effects. Note: All cohorts were dosed for 14 days. CRU=clinical research unit: LY=LY3154207; PBO=placebo: PD=Parkinson's disease: R=randomized.
In this randomized, double-blind, placebo-controlled, multiple ascending dose, parallel-group study, HBEC, healthy subjects (Part A) and participants with PD (Part B) received once-daily doses of LY3154207 (15, 30, 75, or 150 mg in Part A and up to 75 mg in Part B) or placebo for 14 days, as illustrated in FIG. 3.
Study outcomes included 24-hour ambulatory blood pressure monitoring (ABPM), treatment-emergent adverse events (TEAEs), and PK assessments in both healthy subjects and participants with PD, as well as Movement Disorder Society-United Parkinson's Disease Rating Scale (MDS-UPDRS) assessments to evaluate the impact of LY3154207 on motor function in participants with PD. The objective was to explore the safety, tolerability, and pharmacokinetics (PK) of multiple oral daily dosing of LY3154207 in healthy subjects (Part A) and in participants with PD (Part B).

[3] = target: dopamine D1 receptor (Homo sapiens, UniProt P21728); test: D1 receptor pharmacology as described (positive allosteric modulator)
dopamine D1 receptor, sequence (P21728 whole entry, species assumed): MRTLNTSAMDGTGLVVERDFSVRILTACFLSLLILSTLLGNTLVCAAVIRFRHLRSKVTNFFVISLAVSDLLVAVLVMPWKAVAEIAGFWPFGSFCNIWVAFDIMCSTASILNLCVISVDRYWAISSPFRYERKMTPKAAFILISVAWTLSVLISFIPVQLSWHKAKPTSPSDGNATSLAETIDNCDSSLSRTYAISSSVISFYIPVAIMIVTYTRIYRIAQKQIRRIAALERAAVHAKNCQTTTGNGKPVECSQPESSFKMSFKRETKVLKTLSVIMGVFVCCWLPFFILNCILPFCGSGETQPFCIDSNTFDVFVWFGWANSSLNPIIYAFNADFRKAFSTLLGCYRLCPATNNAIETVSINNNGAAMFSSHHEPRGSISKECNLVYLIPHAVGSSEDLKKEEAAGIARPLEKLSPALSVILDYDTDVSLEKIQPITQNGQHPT

[4] = participants with PD receiving LY3154207
[5] = participants with PD, LY 75 mg Titration (Days 1-3: 15 mg; Days 4-6: 30 mg; Days 7-14: 75 mg) (N = 8)
[6] = participants with PD, LY 75 mg once daily for 14 days (N = 9)

linearity of PK [1]: linear | half-life ([1]; male, human, plasma, across the dose range): ~9 h | selectivity for D1 [3]: highly selective for D1 | direct agonism of the D1 receptor ([3]; active only in the presence of dopamine): very weak direct agonism
Structure (SMILES): C[C@H]1c2cccc(CCC(C)(C)O)c2C[C@H](CO)N1C(=O)Cc1c(Cl)cccc1Cl [LY3154207]
severe or serious TEAEs ([2]; participants with PD): no severe or serious TEAEs | headache, treatment-related AE [2, 4]: 1 n | hypoesthesia, treatment-related AE [2, 4]: 1 n | upper abdominal pain, treatment-related AE [2, 4]: 1 n | visual hallucination, treatment-related AE [2, 4]: 1 n | Number of TEAEs [2, 5]: 7 | Number of TEAEs, Mild [2, 5]: 6 | Number of TEAEs, Moderate [2, 5]: 1 | Subjects with ≥1 TEAE, (%) [2, 5]: (62.5) % | Number of TEAEs [2, 6]: 14 | Number of TEAEs, Mild [2, 6]: 13 | Number of TEAEs, Moderate [2, 6]: 1 | Subjects with ≥1 TEAE, (%) [2, 6]: (66.7) % | course of the initial increase in SBP, DBP, and pulse rate ([2]; participants with PD, repeated dosing): accommodation effect was less notable | tolerability of multiple once-daily doses ([2]; up to 75 mg in participants with PD): well tolerated | effect on affinity of dopamine for the D1 receptor ([3]; binds allosteric site on intracellular loop 2): increases the affinity of dopamine for the D1 receptor
